# Test results published in patent US20040023884A1, “Biologically active peptides from functional domains of bactericidal/permeability-increasing protein and uses thereof” (priority 1993, published 2004).
# Square brackets hold non-standard residues; d marks the D form. Ends that are not written are not given here. Peptide text beside a SMILES is read from it. Phe(4-NH2) = Nc1ccc(C[C@H](N)C(=O)O)cc1; 1Nal = N[C@@H](Cc1cccc2ccccc12)C(=O)O; Cha = N[C@@H](CC1CCCCC1)C(=O)O
# Key:
# [1] = tested on: rough mutant E. coli J5 bacteria; test: Radial diffusion bactericidal assay, E. coli J5; format: cell-based; details: radial diffusion; PROBIT analysis; E. coli J5 (rough)
# How it was run: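 Wells received 5 or 10 μL of BPI fragment, pre-incubated 3 h at 37 °C. The underlayer agarose carried washed log-phase organisms at 4×10^6 CFU/mL.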
# [2] = tested on: E. coli 0111:B4 (smooth) bacteria; test: Radial diffusion bactericidal assay, E. coli 0111:B4; format: cell-based; details: radial diffusion; PROBIT analysis; E. coli O111:B4 (smooth)
# Staphylococcus aureus = test: Radial diffusion bactericidal assay, Staphylococcus aureus; format: cell-based; details: radial diffusion; PROBIT analysis; S. aureus
# C. albicans = test: Radial diffusion fungicidal assay, Candida albicans; format: cell-based; details: radial diffusion
# Candida albicans = format: cell-based
# [3] = 3H-heparin binding assay (affinity and capacity); details: for Heparin Capacity: heparin bound at saturation; for Kd: read-out: Heparin Affinity
# How it was run: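 Peptide fragments were bound to PVDF-membrane wells and incubated with 3H-heparin in blocking buffer for 1 h at 4 °C. After washing, bound radioactivity was quantified by liquid scintillation counting, with BSA background subtracted; rBPI23 served as positive control.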
# RAW 264.7 cells = test: LPS neutralization cellular proliferation assay, RAW 264.7 cells; format: cell-based, mouse
# Method: In this assay, mouse RAW 264.7 cells (ATCC Accession No. T1B71), maintained in RPMI 1640 media (GIBCO), supplemented with 10 mM HEPES buffer (pH 7.4), 2 mM L-glutamine, penicillin (100U/mL), streptomcin (100 μg/mL), 0.075% sodium bicarbonate, […] 2-mercaptoethanol and 10% fetal bovine serum (Hyclone, Inc., Logan, Utah), were first induced by incubation in the presence of 50U/mL recombinant mouse y-interferon (Genzyme, Cambridge, Mass.) for 24 h prior to assay. Induced cells were then mechanically collected and centrifuged at 500×g at 4° C. and then resuspended in 50 mL RPMI 1640 media (without supplements), re-centrifuged and again resuspended in RPMI 1640 media (without supplements). The cells were counted and their concentration adjusted to 2×10^5 cells/mL and 100 μL aliquots were added to each well of a 96-well microtitre plate. The cells were then incubated for about 15 hours with E. coli O113 LPS (Control Standard. Assoc. of Cape Cod. Woods Hole, Mass.), which was added in 100 μL/well aliquots at a concentration of […] in serum-free RPMI 1640 media (this concentration being the result of titration experiments in which LPS concentration was varied between 50 pg/mL and 100 ng/mL). This incubation was performed in the absence or presence of BPI functional domain peptides in varying concentrations between 25 ng/mL and 50 μg/mL. Recombinant human BPI was used as a positive control at a concentration of 1 μg/mL. Cell proliferation was quantitatively measured by the addition of 1 μCi/well [^3H]-thymidine 5 hours after the time of initiation of the assay. After the 15-hour incubation, labeled cells were harvested onto glass fiber filters with a cell harvester (Inotech Biosystems, EQ-384, Sample Processing and Filter Counting System, Lansing, Mich.).
compound,measurement,setting,value
KSKVGWLIQWFHKK [BPI.142],"pmol added to well to achieve a 30 mm^2 bactericidal zone, E. coli J5",[1],922.21 pmol
same,"pmol added to well to achieve a 30 mm^2 bactericidal zone, E. coli O111:B4",[2],b (no detectable activity up to 5 μg/well)
same,"pmol added to well to achieve a 30 mm^2 bactericidal zone, S. aureus",Staphylococcus aureus,b (no detectable activity up to 5 μg/well)
same,C. albicans: pmol required for 30 mm^2 zone,C. albicans,1243.79 pmol
same,MIC C. alb,Candida albicans,12.50 µg/mL
KWKVFKKIEKKSKVGWLIQLFHKK [BPI.149],"pmol added to well to achieve a 30 mm^2 bactericidal zone, E. coli J5",[1],44.00 pmol
same,"pmol added to well to achieve a 30 mm^2 bactericidal zone, E. coli O111:B4",[2],391.00 pmol
same,"pmol added to well to achieve a 30 mm^2 bactericidal zone, S. aureus",Staphylococcus aureus,b (no detectable activity up to 5 μg/well)
same,C. albicans: pmol required for 30 mm^2 zone,C. albicans,>1397.76 pmol
same,MIC C. alb,Candida albicans,12.50 µg/mL
KSKVKFLIQLFHKK [BPI.138],"pmol added to well to achieve a 30 mm^2 bactericidal zone, E. coli J5",[1],64.57 pmol
same,"pmol added to well to achieve a 30 mm^2 bactericidal zone, E. coli O111:B4",[2],995.40 pmol
same,"pmol added to well to achieve a 30 mm^2 bactericidal zone, S. aureus",Staphylococcus aureus,b (no detectable activity up to 5 μg/well)
same,C. albicans: pmol required for 30 mm^2 zone,C. albicans,256.82 pmol
same,MIC C. alb,Candida albicans,3.13 µg/mL
CC[C@H](C)[C@H](NC(=O)[C@H](CC(C)C)NC(=O)[C@H](Cc1c[nH]c2ccccc12)NC(=O)CNC(=O)[C@@H](NC(=O)[C@H](CCCCN)NC(=O)[C@H](CO)NC(=O)[C@@H](N)CCCCN)C(C)C)C(=O)N[C@@H](CCC(N)=O)C(=O)N[C@@H](Cc1cccc2ccccc12)C(=O)N[C@@H](Cc1ccccc1)C(=O)N[C@@H](Cc1c[nH]cn1)C(=O)N[C@@H](CCCCN)C(=O)N[C@@H](CCCCN)C(=O)O [BPI.143] (H-KSKVGWLIQ[1Nal]FHKK-OH; N-terminus and C-terminus assumed),"pmol added to well to achieve a 30 mm^2 bactericidal zone, E. coli J5",[1],"12,388.45 pmol"
same,"pmol added to well to achieve a 30 mm^2 bactericidal zone, E. coli O111:B4",[2],b (no detectable activity up to 5 μg/well)
same,"pmol added to well to achieve a 30 mm^2 bactericidal zone, S. aureus",Staphylococcus aureus,b (no detectable activity up to 5 μg/well)
same,C. albicans: pmol required for 30 mm^2 zone,C. albicans,>2838.99 pmol
same,MIC C. alb,Candida albicans,25.00 µg/mL
KSKVGWLILLFHKK [BPI.86],"pmol added to well to achieve a 30 mm^2 bactericidal zone, E. coli J5",[1],"1,519.64 pmol"
same,Heparin Capacity,[3],208.4 ng
same,Kd,[3],0.383 µM
same,"pmol added to well to achieve a 30 mm^2 bactericidal zone, E. coli O111:B4",[2],b (no detectable activity up to 5 μg/well)
same,"pmol added to well to achieve a 30 mm^2 bactericidal zone, S. aureus",Staphylococcus aureus,"459,138.55 pmol"
same,C. albicans: pmol required for 30 mm^2 zone,C. albicans,>2048.45 pmol
same,EC50 (peptide concentration at which the growth inhibitory effect of LPS was reversed by 50%),RAW 264.7 cells,0.13 ± 0.04 µg/mL
KSKVGVLIQLFHKK [BPI.166],"pmol added to well to achieve a 30 mm^2 bactericidal zone, E. coli J5",[1],514.00 pmol
same,"pmol added to well to achieve a 30 mm^2 bactericidal zone, E. coli O111:B4",[2],"9,586.00 pmol"
same,"pmol added to well to achieve a 30 mm^2 bactericidal zone, S. aureus",Staphylococcus aureus,b (no detectable activity up to 5 μg/well)
same,C. albicans: pmol required for 30 mm^2 zone,C. albicans,170.65 pmol
same,MIC C. alb,Candida albicans,3.13 µg/mL
KSKVKWLIQLFHKK [BPI.97],"pmol added to well to achieve a 30 mm^2 bactericidal zone, E. coli J5",[1],295.58 pmol
same,Heparin Capacity,[3],252.2 ng
same,Kd,[3],0.765 µM
same,"pmol added to well to achieve a 30 mm^2 bactericidal zone, E. coli O111:B4",[2],b (no detectable activity up to 5 μg/well)
same,"pmol added to well to achieve a 30 mm^2 bactericidal zone, S. aureus",Staphylococcus aureus,b (no detectable activity up to 5 μg/well)
same,C. albicans: pmol required for 30 mm^2 zone,C. albicans,213.22 pmol
same,MIC C. alb,Candida albicans,3.13 µg/mL
CC[C@H](C)[C@H](NC(=O)[C@H](CC(C)C)NC(=O)[C@H](CC1CCCCC1)NC(=O)CNC(=O)[C@@H](NC(=O)[C@H](CCCCN)NC(=O)[C@H](CO)NC(=O)[C@@H](N)CCCCN)C(C)C)C(=O)N[C@@H](CCC(N)=O)C(=O)N[C@@H](CC(C)C)C(=O)N[C@@H](Cc1ccccc1)C(=O)N[C@@H](Cc1c[nH]cn1)C(=O)N[C@@H](CCCCN)C(=O)N[C@@H](CCCCN)C(=O)O [BPI.144] (H-KSKVG[Cha]LIQLFHKK-OH; N-terminus and C-terminus assumed),"pmol added to well to achieve a 30 mm^2 bactericidal zone, E. coli J5",[1],510.02 pmol
same,"pmol added to well to achieve a 30 mm^2 bactericidal zone, E. coli O111:B4",[2],b (no detectable activity up to 5 μg/well)
same,"pmol added to well to achieve a 30 mm^2 bactericidal zone, S. aureus",Staphylococcus aureus,b (no detectable activity up to 5 μg/well)
same,C. albicans: pmol required for 30 mm^2 zone,C. albicans,695.19 pmol
same,MIC C. alb,Candida albicans,12.50 µg/mL
CC[C@H](C)[C@H](NC(=O)[C@H](CC(C)C)NC(=O)[C@H](Cc1cccc2ccccc12)NC(=O)CNC(=O)[C@@H](NC(=O)[C@H](CCCCN)NC(=O)[C@H](CO)NC(=O)[C@@H](N)CCCCN)C(C)C)C(=O)N[C@@H](CCC(N)=O)C(=O)N[C@@H](CC(C)C)C(=O)N[C@@H](Cc1ccccc1)C(=O)N[C@@H](Cc1c[nH]cn1)C(=O)N[C@@H](CCCCN)C(=O)N[C@@H](CCCCN)C(=O)O [BPI.83] (H-KSKVG[1Nal]LIQLFHKK-OH),"pmol added to well to achieve a 30 mm^2 bactericidal zone, E. coli J5",[1],164.84 pmol
same,Heparin Capacity,[3],253.3 ng
same,Kd,[3],0.41 µM
same,"pmol added to well to achieve a 30 mm^2 bactericidal zone, E. coli O111:B4",[2],"51,147.55 pmol"
same,"pmol added to well to achieve a 30 mm^2 bactericidal zone, S. aureus",Staphylococcus aureus,"116,500.54 pmol"
same,C. albicans: pmol required for 30 mm^2 zone,C. albicans,1804.26 pmol
same,EC50 (peptide concentration at which the growth inhibitory effect of LPS was reversed by 50%),RAW 264.7 cells,1.2 ± 0.1 µg/mL
KSKVGWLIQLFHKF [BPI.96],"pmol added to well to achieve a 30 mm^2 bactericidal zone, E. coli J5",[1],378.33 pmol
same,Heparin Capacity,[3],203.8 ng
same,Kd,[3],0.469 µM
same,"pmol added to well to achieve a 30 mm^2 bactericidal zone, E. coli O111:B4",[2],"8,691.85 pmol"
same,"pmol added to well to achieve a 30 mm^2 bactericidal zone, S. aureus",Staphylococcus aureus,"91,585.37 pmol"
same,C. albicans: pmol required for 30 mm^2 zone,C. albicans,1856.08 pmol
same,EC50 (peptide concentration at which the growth inhibitory effect of LPS was reversed by 50%),RAW 264.7 cells,1.6 ± 0.2 µg/mL
same,IC50 (peptide concentration at which RAW cell growth was inhibited by 50%),RAW 264.7 cells,18.8 ± 0.8 µg/mL
KSKVGYLIQLFHKK [BPI.139],"pmol added to well to achieve a 30 mm^2 bactericidal zone, E. coli J5",[1],"1,261.37 pmol"
same,"pmol added to well to achieve a 30 mm^2 bactericidal zone, E. coli O111:B4",[2],"3,793.91 pmol"
same,"pmol added to well to achieve a 30 mm^2 bactericidal zone, S. aureus",Staphylococcus aureus,b (no detectable activity up to 5 μg/well)
same,C. albicans: pmol required for 30 mm^2 zone,C. albicans,322.96 pmol
same,MIC C. alb,Candida albicans,6.25 µg/mL
CC[C@H](C)[C@H](NC(=O)[C@H](CC(C)C)NC(=O)[C@H](Cc1ccc(N)cc1)NC(=O)CNC(=O)[C@@H](NC(=O)[C@H](CCCCN)NC(=O)[C@H](CO)NC(=O)[C@@H](N)CCCCN)C(C)C)C(=O)N[C@@H](CCC(N)=O)C(=O)N[C@@H](CC(C)C)C(=O)N[C@@H](Cc1ccccc1)C(=O)N[C@@H](Cc1c[nH]cn1)C(=O)N[C@@H](CCCCN)C(=O)N[C@@H](CCCCN)C(=O)O [BPI.133] (H-KSKVG[Phe(4-NH2)]LIQLFHKK-OH; N-terminus and C-terminus assumed),"pmol added to well to achieve a 30 mm^2 bactericidal zone, E. coli J5",[1],"2,316.59 pmol"
same,"pmol added to well to achieve a 30 mm^2 bactericidal zone, E. coli O111:B4",[2],b (no detectable activity up to 5 μg/well)
same,"pmol added to well to achieve a 30 mm^2 bactericidal zone, S. aureus",Staphylococcus aureus,b (no detectable activity up to 5 μg/well)
same,C. albicans: pmol required for 30 mm^2 zone,C. albicans,284.39 pmol
same,MIC C. alb,Candida albicans,12.50 µg/mL
KSKVGWLIKLFHKK [BPI.92],"pmol added to well to achieve a 30 mm^2 bactericidal zone, E. coli J5",[1],331.80 pmol
same,Heparin Capacity,[3],227.3 ng
same,Kd,[3],0.667 µM
same,"pmol added to well to achieve a 30 mm^2 bactericidal zone, E. coli O111:B4",[2],b (no detectable activity up to 5 μg/well)
same,"pmol added to well to achieve a 30 mm^2 bactericidal zone, S. aureus",Staphylococcus aureus,b (no detectable activity up to 5 μg/well)
same,C. albicans: pmol required for 30 mm^2 zone,C. albicans,298.72 pmol
same,MIC C. alb,Candida albicans,3.13 µg/mL
